# Source: PMC5085761 (International Journal of Molecular Sciences, 2016)
# Legend:
# OATP1B1 = target: T1, OATP1B1 (Homo sapiens, UniProt Q9Y6L6); experiment: [14C]fluciclovine uptake by OATP1B1-expressing cells; type: in vitro ADME; conditions: OATP1B1 cells vs mock cells
# T1 construct: host or cells: HEK293
# T1 sequence (Q9Y6L6 1-691): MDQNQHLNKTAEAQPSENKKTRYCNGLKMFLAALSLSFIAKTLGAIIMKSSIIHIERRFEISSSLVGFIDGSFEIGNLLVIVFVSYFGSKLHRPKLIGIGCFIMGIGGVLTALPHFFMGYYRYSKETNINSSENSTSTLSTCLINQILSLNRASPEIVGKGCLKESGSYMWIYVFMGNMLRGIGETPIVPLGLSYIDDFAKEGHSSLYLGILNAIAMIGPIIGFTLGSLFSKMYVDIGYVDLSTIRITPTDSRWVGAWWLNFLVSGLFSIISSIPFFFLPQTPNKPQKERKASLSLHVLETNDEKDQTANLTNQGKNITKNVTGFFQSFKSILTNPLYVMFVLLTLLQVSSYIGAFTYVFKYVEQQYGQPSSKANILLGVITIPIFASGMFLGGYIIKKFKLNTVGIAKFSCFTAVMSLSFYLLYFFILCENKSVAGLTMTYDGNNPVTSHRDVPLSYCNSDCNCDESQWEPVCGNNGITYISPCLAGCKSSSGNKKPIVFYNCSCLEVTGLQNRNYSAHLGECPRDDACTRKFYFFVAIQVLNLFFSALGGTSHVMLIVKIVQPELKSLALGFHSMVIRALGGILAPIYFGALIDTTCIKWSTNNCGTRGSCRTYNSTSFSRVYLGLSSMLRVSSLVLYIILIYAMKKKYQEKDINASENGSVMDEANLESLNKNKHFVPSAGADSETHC
# Experimental: For the SLC transporter experiments, Mock Flp-in-293 cells (Flp/mock), OAT1-expressing Flp-in-293 cells (Flp/OAT1), mock HEK293 cells (HEK/mock), and OATP1B3-expressing HEK293 cells (HEK/OATP1B3) were obtained from Kanazawa University (Ishikawa, Japan). Briefly, Flp-in-293 and HEK293 cells were transfected with the appropriate plasmid DNA and selected using antibiotics (hygromycin or G-418). All cell lines were cultured in DMEM (Life Technologies Japan) supplemented with 10% (v/v) fetal bovine serum (American Type Culture Collection) and antibiotics (100 U/mL penicillin and 100 μg/mL streptomycin (Life Technologies Japan) for mock cells, 0.2 mg/mL hygromycin for Flp/OAT1 cells, and 1.2 mg/mL G-418 (Roche Diagnostics K.K., Tokyo, Japan) for HEK/OATP1B3 cells) at 37 °C under an atmosphere containing 5% CO2. […]
# The experiments were performed as described previously, with minor modifications. […] The cells were lysed in 0.3 mL of 0.1N NaOH at room temperature, after which the radioactivity of each aliquot was measured as described above. The protein concentration of the cell lysate was determined with a VersaMax microplate reader (Molecular Devices Japan K.K., Osaka, Japan) or SpectraMax i3x (Molecular Devices Japan K.K.; only for OATP1B1) using a BCA Protein Assay Kit (Thermo Fisher Scientific, Kanagawa, Japan). Tracer uptake was expressed as pmol/mg protein. […]
# LLC-PK1 monolayers = experiment: Apical-to-basal transport through LLC-PK1 monolayers; type: in vitro ADME, pig; conditions: 10 µM tracer, at 120 min
# Experimental: The LLC-PK1 cell line was purchased from DS Pharma Biomedical (Osaka, Japan). Cells were maintained in Dulbecco’s modified Eagle’s medium (DMEM; Life Technologies Japan, Tokyo, Japan) supplemented with 10% (v/v) fetal bovine serum (American Type Culture Collection, Manassas, VA, USA) and antibiotics (100 U/mL penicillin and 100 μg/mL streptomycin (Life Technologies Japan)). Cells were cultured at 37 °C under an atmosphere containing 5% CO2 before the start of the experiments.
# Cells were seeded at a density of 1.5 × 10^6 cells/0.25 mL on the membrane of cell culture inserts fitting 24-well plates (upper compartment, apical side; Becton Dickinson, Franklin Lakes, NJ, USA). Flat-bottom 24-well tissue culture plates (Becton Dickinson) containing 0.95 mL of culture medium per well were used as the basolateral side (bottom compartment).
# LLC-PK1 monolayer formation was monitored by the measurement of TER using an EVOM-2 and Endohm24 (World Precision Instruments, Inc., Sarasota, FL, USA) according to the manufacturer’s protocol. […] [^3H]Mannitol transport was measured as described in Section 4.3 for the validation of tight junction formation because mannitol passes through the cell monolayers via the paracellular route.
# Experimental procedures were performed as described previously with minor modifications. After cultivation as described above, the culture media in both compartments were replaced with Na^+ buffer (137 mM NaCl, 2.7 mM KCl, 8 mM Na2HPO4, 1.5 mM KH2PO4, 5.6 mM D-glucose, 0.9 mM CaCl2, and 0.5 mM MgCl2; pH 7.4 at 37 °C), and the cells were preincubated for 10 min at 37 °C under normal air conditions. After the buffer was removed from each compartment, the permeability experiments were started with the addition of 0.25 mL of Na^+ buffer containing radiolabeled tracers (final concentration: 81 nM for [^3H]mannitol and 10 μM for the ^14C-labeled amino acid tracers) in each upper compartment, and 0.95 mL of Na^+ buffer in each bottom compartment. The inserts were placed into new 24-well culture plates containing 0.95 mL/well of Na^+ buffer after 5, 15, 30, 60, and 90 min of incubation. Subsequently, the cells were incubated up to 120 min at 37 °C under normal air conditions.
# The apical-to-basal permeability was measured by sampling an aliquot of the buffer from the upper and bottom compartment at the indicated times. To evaluate intracellular accumulation, the cells were lysed in 0.5 mL of 0.1N NaOH at room temperature following rapid washing of the cells with ice-cold Na^+ buffer. The radioactivity of each aliquot was measured with an LSC6000SC (Beckman Coulter, Inc., Brea, CA, USA) or Tri-Carb 2910TR liquid scintillation counter (PerkinElmer) using Ultima Gold (PerkinElmer).
structure (smiles),measurement,setting,value
"N[14C]1(C(=O)O)CC(F)C1 (stereo not drawn) [[^14C]fluciclovine, trans-1-amino-3-fluoro[1-^14C]cyclobutanecarboxylic acid]",drug transporter-mediated uptake,OATP1B1,negligible
same,mean penetration amount (apical-to-basal transport),LLC-PK1 monolayers,145 pmol
same,mean residual radioactivity in the cells,LLC-PK1 monolayers,238 pmol
